From patent EP0831877B1, “METABOLIC EFFECTS OF CERTAIN GLUTATHIONE ANALOGS” (TELIK, INC., priority 1995, dated 1996)
Several values for one entry are separate records, joined by “and”; a condition that tells them apart may be missing. Equal values may be shown once. Read-outs that look alike come from different tables or passages of the source. Marks after values point to notes of the source that are not given here. Each block holds one molecule with its values, some of them ahead of it. *1 amine or outer side, *2 acyl side, *3 side chain or, on linkers, in order; H or OH if unused. Where a SMILES comes first, the peptide text is derived from it. [ ]: non-standard residue; d: D form. The star is where a group is joined. γGlu = O=C(O)[C@H](CCC(=O)[*:2])N[*:1]; dPhg = N[C@@H](C(=O)O)c1ccccc1; Bn = c1ccc(C*)cc1

Legend:
bone marrow GM-CFU [1] = assay: 5-fluorouracil-induced GM-CFU suppression in mice
Description: The control group was not treated with either drug. Bone marrows were harvested and GM-CFUs were determined 24 hours after the final injection.
Values are the mean ± SE of three mice per point.

[2] = system: HT-29 (human colon adenocarcinoma) cells; assay: modified clonogenic assay, potentiation of chlorambucil cytotoxicity; format: cell-based; details: chlorambucil, mean ±S.D. of 2-3 experiments; for DMF (dose modification factor), Parent Compound: dose tested 100 µM
Description: HT-29 (human colon adenocarcinoma) cells were obtained from Dr. Roberto Ceriani (Cancer Research Fund of Contra Costa County, Walnut Creek, CA) and were used in log phase of growth unless otherwise specified. Chlorambucil (CMB) was obtained from Sigma (St. Louis, MO) and was dissolved in 100% ethanol. All GST inhibitors were dissolved in ethanol, DMSO, or water just prior to use. The same amount of solvent added to culture medium served as the vehicle control.
In a modified clonogenic assay for cytotoxicity, cells were suspended at 2 x 10^5 cells/ml in serum-free medium in the presence of vehicle or inhibitor. […] Cells were incubated for 2 hours, then varying doses of CMB were added. At the end of a second 2-hour incubation, cells were diluted to 7.5-10 x 10^3/ml in serum-containing medium and plated in quadruplicate at 200 µl/well in Microtest III microtiter plates.
Plates were incubated for 6 days and assayed by a modified methylene blue method. Briefly, cells were fixed with 1.25% glutaraldehyde in PBS then stained with 0.05% methylene blue in distilled water. Plates were washed several times in distilled water to remove unretained dye and retained dye was resolubilized in 0.03 N HCl. Plates were read at 650 nm in a Molecular Devices Vmax plate reader (Molecular Devices, Redwood City, CA). […] A dose modification factor (DMF), a measure of potentiation of cytotoxicity, was calculated for each inhibitor by dividing the IC50 value of CMB without inhibitor treatment by the IC50 value for CMB with inhibitor treatment.

Human GST P1-1 = Human GST P1-1 (Homo sapiens, UniProt P09211); assay: inhibition of GST isoenzyme P1-1 (Ki); format: biochemical; details: for Rank order: rank of Ki for Human GST P1-1
Chain of Human GST P1-1 (P09211 2-210 limits assumed): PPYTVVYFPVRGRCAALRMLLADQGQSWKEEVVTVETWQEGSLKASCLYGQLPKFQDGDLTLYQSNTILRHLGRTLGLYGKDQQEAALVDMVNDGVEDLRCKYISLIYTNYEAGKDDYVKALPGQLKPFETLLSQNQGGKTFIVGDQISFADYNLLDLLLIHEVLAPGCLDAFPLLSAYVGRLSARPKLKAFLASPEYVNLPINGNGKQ

GST M2-2 = target: T1, GST M2-2 (Homo sapiens, UniProt P28161); assay: inhibition of GST isoenzyme M2-2 (Ki); format: biochemical; details: determined on unesterified form
T1 sequence (P28161 1-218): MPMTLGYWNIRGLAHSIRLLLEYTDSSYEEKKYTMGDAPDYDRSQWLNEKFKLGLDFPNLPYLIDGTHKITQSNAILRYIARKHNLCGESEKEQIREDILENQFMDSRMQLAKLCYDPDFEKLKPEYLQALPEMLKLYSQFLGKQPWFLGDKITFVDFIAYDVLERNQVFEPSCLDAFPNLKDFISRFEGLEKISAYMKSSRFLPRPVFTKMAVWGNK

GST A1-1 = target: T2, GST A1-1 (Homo sapiens, UniProt P08263); assay: inhibition of GST isoenzyme A1-1 (Ki); format: biochemical
T2 sequence (P08263 1-222): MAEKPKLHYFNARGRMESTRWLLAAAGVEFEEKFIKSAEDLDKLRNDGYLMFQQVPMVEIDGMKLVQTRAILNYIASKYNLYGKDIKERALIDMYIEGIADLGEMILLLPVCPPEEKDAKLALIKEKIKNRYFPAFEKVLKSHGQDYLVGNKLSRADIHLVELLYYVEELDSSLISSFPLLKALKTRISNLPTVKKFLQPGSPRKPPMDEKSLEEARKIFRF

bone marrow GM-CFU [3] = assay: stimulation of bone marrow GM-CFU after administration to mice; format: in vivo, B6D2F1 mice; details: bone marrow harvested 24 hours after administering
Description: In an illustrative assay three B6D2F1 mice were treated with various doses of benzyl PG intraperitoneally.
Mice in the control group were injected with water or saline. Bone marrow cells were harvested 24 hours after drug treatment and added to alpha minimum essential medium (alpha MEM) supplemented with methylcellulose (0.8% w/v), fetal bovine serum (20% v/v), deionized BSA (1% w/v), Pokeweed mitogen-stimulated spleen-cell conditioned medium (PWM-SCCM)^1 (10% v/v) and gentamycin (50 Tg/ml). One ml aliquots were plated (four replicate plates) and incubated for seven days at 37 °C. […] Spleens were removed aseptically from four male B6D2F1 mice enforced through a 200 Tm wire mesh screen to obtain a single cell suspension. Ten ml of the suspension (2-4 X 10^7 cell/ml was added to 90 ml alpha-MEM supplemented with 1% deionized BSA, 50 Tg/ml gentamicin, 0.3% freshly reconstituted pokeweed antigen, 10 µM 2-mercaptoethanol. The mixture was incubated for 5 days at […] in a 5% CO2 atmosphere and the result-ing conditioned medium was centrifuged at 800g for ten minutes and filtered through a 0.22 Tm filter. Aliquots were kept frozen at […] until use.
Bone marrow was harvested 24 hours after administering the compounds and GM-CFU levels measured as described above.

GST M1a-1a = target: T3, GST M1a-1a (Homo sapiens, UniProt P09488); assay: inhibition of GST isoenzyme M1a-1a (Ki); format: biochemical
T3 sequence (P09488 1-218): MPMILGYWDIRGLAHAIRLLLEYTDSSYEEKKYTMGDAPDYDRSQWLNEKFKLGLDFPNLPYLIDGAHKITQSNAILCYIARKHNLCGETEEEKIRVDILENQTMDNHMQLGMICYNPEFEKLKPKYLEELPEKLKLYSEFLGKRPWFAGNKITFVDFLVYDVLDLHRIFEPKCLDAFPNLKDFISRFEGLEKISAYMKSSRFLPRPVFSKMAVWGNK

[4] = system: HT4-1, a subclone of HT-29; assay: standard clonogenic assay, potentiation of drug toxicity, HT4-1
Description: Four chemotherapeutic drugs, chlorambucil, adriamycin, mitomycin C and doxorubicin were used as the toxic agents. In these assays, the cells were seeded at 300 cells/well in 2 ml of medium in 6-well plates in the presence of the compounds used in the invention as the diethyl esters. […] After incubation for 1-2 hours to permit cells to attach, varying doses of the chemotherapeutic agents were added. At least three replicate wells were plated for each test condition and the plates were incubated for two weeks. […] IC50 values were determined for the chemotherapeutic agent in the presence or absence of the compound used in the invention and dose modification factors were calculated by dividing the IC50 value of drug without the compound by the IC50 value of the drug with the compound.

[5] = system: SKOV-3 an ovarian carcinoma; assay: standard clonogenic assay, potentiation of drug toxicity, SKOV-3; format: cell-based
Description: (§1) ; SKOV-3 an ovarian carcinoma, and VLB, a vinblastine-resistant variant of SKOV-3. Four chemotherapeutic drugs, chlorambucil, adriamycin, mitomycin C and doxorubicin were used as the toxic agents. In these assays, the cells were seeded at 300 cells/well in 2 ml of medium in 6-well plates in the presence of the compounds used in the invention as the diethyl esters. […]. After incubation for 1-2 hours to permit cells to attach, varying doses of the chemotherapeutic agents were added. At least three replicate wells were plated for each test condition and the plates were incubated for two weeks. Colonies were fixed in 95% ethanol and stained with crystal violet for colony counting. IC50 values were determined for the chemotherapeutic agent in the presence or absence of the compound used in the invention and dose modification factors were calculated by dividing the IC50 value of drug without the compound by the IC50 value of the drug with the compound.

[6] = system: VLB, a vinblastine-resistant variant of SKOV-3; assay: standard clonogenic assay, potentiation of drug toxicity, VLB; format: cell-based
Description: as §1

[7] = determined on unesterified form
[8] = HT4-1, TER199 at 25 µM, TER183 dose not given

SMILES: O=c1[nH]cc(F)c(=O)[nH]1 [5-FU, 5-fluorouracil, reference compound]
GM-CFU (bone marrow GM-CFU [1]; 75 mg/kg 5-FU IP alone): 15 % of control | GM-CFU (bone marrow GM-CFU [1]; 5-FU 75 mg/kg i.p. alone, harvest 48 hours): 47 % of control | GM-CFU (bone marrow GM-CFU [1]; 5-FU 150 mg/kg i.p. alone, harvest 48 hours): 8 % of control | GM-CFU by day 4 after 5-FU administration (Figure 9b) (bone marrow GM-CFU [1]; 5-FU only): approximately equal to control

SMILES: N[C@@H](CCC(=O)N[C@@H](CSCc1ccccc1)C(=O)N[C@@H](C(=O)O)c1ccccc1)C(=O)O [TER117, γE-C(Bz)-ϕG] (γGlu-Cys(Bn)-[dPhg]-OH)
DMF (dose modification factor), Parent Compound ([2]; HT-29): 1.08 and 1.08±0.01 | Ki (GST M2-2): 31000 nM | Ki (GST A1-1; [7]): 20000 nM | Ki (Human GST P1-1; [7]): 400 nM | effect on GM-CFU as a function of dosage, ester/amide forms (Figure 7) (bone marrow GM-CFU [3]): not effective | Ki (GST M1a-1a; [7]): 25000 nM | survival of HT4-1 cells in the presence of the compound alone (Figure 1b) ([4]; HT4-1 cells): substantially no effect

SMILES: CCCCCCCCSC[C@H](NC(=O)CC[C@H](N)C(=O)OCC)C(=O)NCC(=O)OCC [TER143, γE-C(octyl)-G]
Ki (GST A1-1): 270 nM | Ki (Human GST P1-1): 1900 nM | Ki (GST M1a-1a): 1200 nM

SMILES: CCCCCCCCSC[C@H](NC(=O)CC[C@H](N)C(=O)OCC)C(=O)NCC(=O)OCC [TER183, γE-C(octyl)-G diethyl ester]
DMF for Adriamycin ([5]; analog @5 uM): 1.24 (@5 uM)^c | DMF for Chlorambucil ([5]; test dose not given): 1.03 | DMF (dose modification factor), Diethyl ester ([2]; HT-29, dose tested 5 µM): 0.86±0.02 | DMF of DEE ([2]; diethyl ester): 0.864 | DMF for Adriamycin [4, 8]: 1.13 | DMF for Chlorambucil [4, 8]: 1.74 | DMF for Mitomycin C [4, 8]: 1.56 | DMF for Adriamycin ([6]; TER199 at 25 µM, TER183 dose not given): 1.06 | DMF for Mitomycin C ([6]; test dose not given): 1.63

More lines, main results first:

specificity for GST P1-1 (Human GST P1-1; among TER117, TER102, TER211, TER143): reasonably specific | Rank order (Human GST P1-1): 2
SMILES: CCCCCCSC[C@H](NC(=O)CC[C@H](N)C(=O)O)C(=O)N[C@@H](C(=O)O)c1ccccc1 [TER102, γE-C(hexyl)-ϕG]
DMF (dose modification factor), Parent Compound ([2]; HT-29): 1.1±0.02

Rank order (Human GST P1-1): 4
SMILES: CCCCCCCCSC[C@H](NC(=O)CC[C@H](N)C(=O)O)C(=O)NCC(=O)O [TER143, γE-C(octyl)-G]
